Tests used:
[1] = Solubility and visual clarity of PEG/PPG-8/3 Laurate in water and oils; type: physicochemical
Protocol: Solubility is the ability of one substance to blend uniformly with another, e.g. solid in liquid or liquid in liquid. Clarity is determined visually. A turbidity meter may be used to measure clarity if the system is not absolutely clear. The solubility of PEG/PPG-8/3 Laurate is up to fifty percent (50%) in water. […] The solubility of PEG/PPG-8/3 Laurate is up to ten percent (10%) in sunflower oil and in castor oil. […] In soybean oil, it is clear at five percent (5%) and slightly hazy at ten percent (10%).

Index of refraction = type: physicochemical
Protocol: Preferably, the hair care compositions of the present invention have PEG/PPG-8/3 Laurate. […] Refractive index impacts the overall clarity of the present composition. It is preferred to have an aqueous-based composition with a clear color for aesthetic appeal. The hair care compositions of the present invention have a Shine Index of at least 5 hours, preferably about 8 or more hours, and most preferably up to 18 hours or more, thereby providing for extended life shine. “Shine Index” as used herein is the length of time shine persists on treated hair, as evaluated in the test protocol described in Example 1.

- solubility in castor oil ([1]; in castor oil): ≤ 10%
- clarity (visual) in soybean oil at 5% ([1]; in soybean oil, five percent (5%)): clear
- clarity (visual) in soybean oil at 10% ([1]; in soybean oil, ten percent (10%)): slightly hazy
- clarity (visual) in sunflower and castor oil ([1]; in sunflower and castor oil, up to its solubility limit): clear and homogenous
- solubility in sunflower oil ([1]; in sunflower oil): ≤ 10%
- solubility in water ([1]; in water): ≤ 50%
- clarity (visual) in water ([1]; in water, at concentrations up to its solubility limit): clear and homogeneous
- index of refraction (Index of refraction): about 1.456
Substance: PEG/PPG-8/3 Laurate

— patent publication US20050136020A1, “Silicone-free long-lasting shine hair care compositions” (priority 2003, published 2005)
